Test results published in US20100099561A1, “HETEROBICYCLIC ALKYLTHIO-BRIDGED ISOXAZOLINES” (E.I. DU PONT DE NEMOURS AND COMPANY, priority 2008, published 2010).

Key:
Type in all cases: in vivo
[1] = test system: umbrella sedge (Cyperus difformis); test: Test B flooded paddy test, umbrella sedge; details: Flood, scale 0 to 100
Summary of the method: (§1)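 2-leaf plants; pots flooded 3 cm above soil; compound added to paddy water; depth maintained. Greenhouse 13–15 d. Visual rating vs controls, 0 (no effect) to 100 (complete control); dash = no result.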

[2] = test system: velvetleaf (Abutilon theophrasti); test: Test A preemergence, velvetleaf; details: 0 to 100 scale (0 no effect, 100 complete control)
Summary of the method: (§2)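 In a greenhouse, loam–sand potted species were treated with surfactant-formulated compound, preemergence via directed soil spray and postemergence at 2–10 cm height, one- to two-leaf stage. Response assessed visually at about ten days; 100 means complete control.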

[3] = test system: barnyardgrass (Echinochloa crus-galli); test: Test B flooded paddy test, barnyardgrass; details: Flood
Summary of the method: as §1

[4] = test system: large crabgrass (Digitaria sanguinalis); test: Test A postemergence, large crabgrass; details: 0 to 100 scale (0 no effect, 100 complete control)
Summary of the method: as §2

rice (Oryza sativa) = test: Test B flooded paddy test, rice; details: Flood, scale 0 to 100
Summary of the method: as §1

[5] = test system: barnyardgrass (Echinochloa crus-galli); test: Test A preemergence, barnyardgrass; details: 0 to 100 scale (0 no effect, 100 complete control)
Summary of the method: as §2

[6] = test system: barnyardgrass (Echinochloa crus-galli); test: Test A postemergence, barnyardgrass; details: 0 to 100 scale (0 no effect, 100 complete control)
Summary of the method: as §2

[7] = test system: giant foxtail (Setaria faberi); test: Test A postemergence, giant foxtail; details: 0 to 100 scale (0 no effect, 100 complete control)
Summary of the method: as §2

[8] = test system: velvetleaf (Abutilon theophrasti); test: Test A postemergence, velvetleaf; details: 0 to 100 scale (0 no effect, 100 complete control)
Summary of the method: as §2

corn (Zea mays) [9] = test: Test A preemergence, corn; details: 0 to 100 scale (0 no effect, 100 complete control)
Summary of the method: as §2

[10] = test system: pigweed (Amaranthus retroflexus); test: Test A postemergence, pigweed; details: 0 to 100 scale (0 no effect, 100 complete control)
Summary of the method: as §2

[11] = test system: pigweed (Amaranthus retroflexus); test: Test A preemergence, pigweed; details: 0 to 100 scale (0 no effect, 100 complete control)
Summary of the method: as §2

[12] = test system: morningglory (Ipomoea spp.); test: Test A preemergence, morningglory; details: 0 to 100 scale (0 no effect, 100 complete control)
Summary of the method: as §2

[13] = test system: wheat (Triticum aestivum); test: Test A preemergence, wheat; details: 0 to 100 scale (0 no effect, 100 complete control)
Summary of the method: as §2

[14] = test system: large crabgrass (Digitaria sanguinalis); test: Test A preemergence, large crabgrass; details: 0 to 100 scale (0 no effect, 100 complete control)
Summary of the method: as §2

[15] = test system: giant foxtail (Setaria faberi); test: Test A preemergence, giant foxtail; details: 0 to 100 scale (0 no effect, 100 complete control)
Summary of the method: as §2

[16] = test system: wheat (Triticum aestivum); test: Test A postemergence, wheat; details: 0 to 100 scale (0 no effect, 100 complete control)
Summary of the method: as §2

[17] = test system: ducksalad (Heteranthera limosa); test: Test B flooded paddy test, ducksalad; details: Flood, scale 0 to 100
Summary of the method: as §1

[18] = test system: morningglory (Ipomoea spp.); test: Test A postemergence, morningglory; details: 0 to 100 scale (0 no effect, 100 complete control)
Summary of the method: as §2

corn (Zea mays) [19] = test: Test A postemergence, corn; details: 0 to 100 scale (0 no effect, 100 complete control)
Summary of the method: as §2

For CC1(C)CC([S+]([O-])Cc2c(C(F)(F)F)nc3ccon3c2=O)=NO1 (stereo not drawn) [Compound 43], the “Plant response rating, Sedge, Umbrella” value ([1]; 31 g ai/ha) was 0, the “Plant response rating, Sedge, Umbrella” value ([1]; 62 g ai/ha) was 0 and the “Plant response rating, Sedge, Umbrella” value ([1]; 125 g ai/ha) was 20. For the same compound, the “Plant response rating, Sedge, Umbrella” value ([1]; 250 g ai/ha) was 30, the “Plant response rating, Velvetleaf” value ([2]; 125 g ai/ha) was 0 and the “Plant response rating, Velvetleaf” value ([2]; 500 g ai/ha) was 0. For the same compound, the “Plant response rating, Barnyardgrass” value ([3]; 31 g ai/ha, scale 0 to 100) was 0, the “Plant response rating, Barnyardgrass” value ([3]; 62 g ai/ha, scale 0 to 100) was 0 and the “Plant response rating, Barnyardgrass” value ([3]; 125 g ai/ha, scale 0 to 100) was 0. The “Plant response rating, Barnyardgrass” value ([3]; 250 g ai/ha, scale 0 to 100 (0 no effect, 100 complete control)) was 0, the “Plant response rating, Crabgrass, Large” value ([4]; 125 g ai/ha) was 10 and the “Plant response rating, Crabgrass, Large” value ([4]; 500 g ai/ha) was 60. For the same compound, the “Plant response rating, Rice” value (rice (Oryza sativa); 31 g ai/ha) was 0, the “Plant response rating, Rice” value (rice (Oryza sativa); 62 g ai/ha) was 0 and the “Plant response rating, Rice” value (rice (Oryza sativa); 125 g ai/ha) was 0. For the same compound, the “Plant response rating, Rice” value (rice (Oryza sativa); 250 g ai/ha) was 0, the “Plant response rating, Barnyardgrass” value ([5]; 125 g ai/ha) was 10 and the “Plant response rating, Barnyardgrass” value ([5]; 500 g ai/ha) was 70. The “Plant response rating, Barnyardgrass” value ([6]; 125 g ai/ha) was 40, the “Plant response rating, Barnyardgrass” value ([6]; 500 g ai/ha) was 70 and the “Plant response rating, Foxtail, Giant” value ([7]; 125 g ai/ha) was 30. For the same compound, the “Plant response rating, Foxtail, Giant” value ([7]; 500 g ai/ha) was 70, the “Plant response rating, Velvetleaf” value ([8]; 125 g ai/ha) was 0 and the “Plant response rating, Velvetleaf” value ([8]; 500 g ai/ha) was 0. The “Plant response rating, Corn” value (corn (Zea mays) [9]; 125 g ai/ha) was 0, the “Plant response rating, Corn” value (corn (Zea mays) [9]; 500 g ai/ha) was 0 and the “Plant response rating, Pigweed” value ([10]; 125 g ai/ha) was 0. For the same compound, the “Plant response rating, Pigweed” value ([10]; 500 g ai/ha) was 0, the “Plant response rating, Pigweed” value ([11]; 125 g ai/ha) was 0 and the “Plant response rating, Pigweed” value ([11]; 500 g ai/ha) was 0. The “Plant response rating, Morningglory” value ([12]; 125 g ai/ha) was 0, the “Plant response rating, Morningglory” value ([12]; 500 g ai/ha) was 0 and the “Plant response rating, Wheat” value ([13]; 125 g ai/ha) was 0. The “Plant response rating, Wheat” value ([13]; 500 g ai/ha) was 0, the “Plant response rating, Crabgrass, Large” value ([14]; 125 g ai/ha) was 0 and the “Plant response rating, Crabgrass, Large” value ([14]; 500 g ai/ha) was 60. The “Plant response rating, Foxtail, Giant” value ([15]; 125 g ai/ha) was 0, the “Plant response rating, Foxtail, Giant” value ([15]; 500 g ai/ha) was 80 and the “Plant response rating, Wheat” value ([16]; 125 g ai/ha) was 0. The “Plant response rating, Wheat” value ([16]; 500 g ai/ha) was 0, the “Plant response rating, Ducksalad” value ([17]; 31 g ai/ha) was 0 and the “Plant response rating, Ducksalad” value ([17]; 62 g ai/ha) was 0. For the same compound, the “Plant response rating, Ducksalad” value ([17]; 125 g ai/ha) was 0, the “Plant response rating, Ducksalad” value ([17]; 250 g ai/ha) was 25 and the “Plant response rating, Morningglory” value ([18]; 125 g ai/ha) was 0. For the same compound, the “Plant response rating, Morningglory” value ([18]; 500 g ai/ha) was 40, the “Plant response rating, Corn” value (corn (Zea mays) [19]; 125 g ai/ha) was 0 and the “Plant response rating, Corn” value (corn (Zea mays) [19]; 500 g ai/ha) was 40.
